Where “and” joins values, the source holds several entries; their conditions need not be identical. Identical values can stand only once.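 Growth conditions: 96-well plates. Treatment: test compound, 48 hours, 5 concentrations. Analysis: linear interpolation between bracketing concentrations; unreached endpoints set to highest concentration. GI50 = concentration required for 50% inhibition of growth. TGI: total growth inhibition.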 Where a SMILES comes first, the peptide text is derived from it. [ ]: non-standard residue; d: D form. The star is where a group is joined. ξ: configuration not given here. X3 = COc1ccc(C(N*)c2ccc(OC)cc2)cc1; NMeF = CN[C@@H](Cc1ccccc1)C(=O)O; NMeD = CN[C@@H](CC(=O)O)C(=O)O; NMeV = CN[C@H](C(=O)O)C(C)C; ξNMeV = CNC(C(=O)O)C(C)C; Boc = CC(C)(C)OC(=O)*; ξNMeA = CNC(C)C(=O)O; ξV = CC(C)C(N)C(=O)O
Columns and labels:
Test in all cases: NCI anticancer screen, dose series, 48 h
SNB-75 CNS = system: SNB-75 CNS
786-0 renal = system: 786-0 renal
UO-31 renal = system: UO-31 renal
HCT-116 colon = system: HCT-116 colon
MOLT-4 leukemia = system: MOLT-4 leukemia
NCI-H23 lung = system: NCI-H23 lung
M14 melanoma = system: M14 melanoma
T-47D breast = system: T-47D breast
A549 NSCLC = system: A549 NSCLC
NCI-H460 lung = system: NCI-H460 lung

SMILES | GI50 (SNB-75 CNS) [µM] | TGI (SNB-75 CNS) | GI50 (786-0 renal) | TGI (786-0 renal) | GI50 (UO-31 renal) | TGI (UO-31 renal) | GI50 (HCT-116 colon) | TGI (HCT-116 colon) | GI50 (MOLT-4 leukemia) | TGI (MOLT-4 leukemia) | GI50 (NCI-H23 lung) | TGI (NCI-H23 lung) | GI50 (M14 melanoma) | TGI (M14 melanoma) | GI50 (T-47D breast) | TGI (T-47D breast) | GI50 (A549 NSCLC) | TGI (A549 NSCLC) | GI50 (NCI-H460 lung) | TGI (NCI-H460 lung)
COC[C@H]1Cn2cc(-c3nc(Nc4ccnn4C)ncc3C)nc2C(=O)N1Cc1ccc(F)c(F)c1 | 9.59 | > 100 µM | 88 µM | > 100 µM | 2.66 µM | > 86.6 µM | 0.124 µM | > 100 µM | 23.9 µM | > 100 µM | 0.181 µM | > 100 µM | 0.0403 µM | > 100 µM | 65.5 µM | > 100 µM | 3.23 µM | > 100 µM | 12.3 µM | > 100 µM
O=[N+]([O-])c1ccc(Cl)cc1N/N=C/c1ccnc2ccccc12 |  | > 100 µM |  | > 100 µM |  | > 100 µM |  | > 100 µM |  | > 100 µM |  | > 100 µM |  | > 100 µM |  | > 100 µM |  | > 100 µM |  | > 100 µM
COc1ccc(CCN=C2NC(=O)/C(=C/c3ccc4ncccc4c3)S2)cc1 | > 25 | > 25 µM | > 25 µM | > 25 µM | > 25 µM | > 25 µM | > 25 µM | > 25 µM | > 25 µM | > 25 µM | > 25 µM | > 25 µM | > 25 µM | > 25 µM | > 25 µM | > 25 µM | > 25 µM | > 25 µM | > 25 µM | > 25 µM
Nc1n[nH]c2cc(F)c([C@@H]3Nc4ccc5[nH]ncc5c4[C@H]4C5CCC(C5)[C@@H]34)cc12 (some centres undefined) | 0.0988 | 1.12 µM | 0.25 µM | 12 µM | 0.651 µM | 30.8 µM | 0.174 µM | 1.24 µM | 0.207 µM | > 50 µM | 0.193 µM | 7.77 µM | 0.147 µM | 12.3 µM | 9.96 µM | > 50 µM | 0.201 µM | > 50 µM | 0.177 µM | 5.86 µM
Nc1ccc(C2=NNC(=O)Cc3cc4c(cc32)OCCO4)cc1Cl | 2 | 27.9 µM | 6.51 µM | > 50 µM | 16.8 µM | > 50 µM | 2.64 µM | > 50 µM | 3.05 µM | > 50 µM | 5.28 µM | > 50 µM | 2.3 µM | > 50 µM | 5.42 µM | > 50 µM | 2.95 µM | > 50 µM | 1.94 µM | > 50 µM
CN(C)c1cc(NN=C(c2ccc(O)cc2)c2ccc(O)cc2)c([N+](=O)[O-])cc1[N+](=O)[O-] | 10.4 | 25 µM | 10.9 µM | 25.1 µM | 5.32 µM | 20.5 µM | 5.14 µM | 21.1 µM | 3.37 µM | 23.2 µM | 6.46 µM | 23.1 µM | 9.06 µM | 22.6 µM | 3.34 µM | 17.2 µM | 4.45 µM | 18.5 µM | 4.36 µM | 15.9 µM
CCCCCCCCCCCCC(O)c1ccc(C#CCCCCCCCCCO)o1 (centres undefined) | 34.1 | 70.1 µM | 18.9 µM | 34.4 µM | 19.9 µM | 38.5 µM | 14.4 µM | 27.4 µM | 4.69 µM | 26.7 µM | 26.4 µM | 48.8 µM | 17.4 µM | 31.9 µM | 44.2 µM | > 100 µM | 16.9 µM | 32.9 µM | 28.3 µM | 75.4 µM
Nc1c(C(=O)Nc2cccc(C(F)(F)F)c2)sc2nc3c(cc12)CCCCC3 | 1.74 | 3.93 µM | 1.58 µM | 3.13 µM | 1.64 µM | 4.88 µM | 1.62 µM | 4.18 µM | 15 µM | 51.6 µM | 1.72 µM | 10.9 µM | 4.15 µM | 41.5 µM | 1.55 µM | 8.31 µM | 2.25 µM | 11 µM | 2.61 µM | 11.4 µM
COc1ccc(C(NC(=O)C[C@@H](C(=O)N(C)C(C)C(=O)O)N(C)C(=O)[C@@H]2CCCN2C(=O)[C@H](C(C)C)N(C)C(=O)C(C(C)C)N(C)C(=O)[C@H](Cc2ccccc2)N(C)C(=O)C(NC(=O)OC(C)(C)C)C(C)C)c2ccc(OC)cc2)cc1 (some centres undefined) (Boc-[ξV][NMeF][ξNMeV][NMeV]P[NMeD](X3)[ξNMeA]-OH) | 15.8 | 17.6 µM and 30.7 µM | 17.9 µM | 33.4 µM and 31.7 µM | 17.6 µM | 37.5 µM and 31.5 µM | 17.3 µM | 36.2 µM and 34.6 µM | 17 µM | 19.3 µM and 43.7 µM | 23.1 µM | 37.5 µM and 53.4 µM | 17.4 µM | 28.6 µM and 31.1 µM |  | 36.7 µM | 17.1 µM | > 37.5 µM and 31.7 µM | 17.8 µM | 37.5 µM and 33.3 µM
CC1(COc2ccc3c(c2)ncn3-c2ccc3cccc(N4CCC(N)CC4)c3n2)COC1 | 0.734 | 5.65 µM | 1.8 µM and 1.75 µM | 4.63 µM and 3.85 µM | 1.78 µM and 0.822 µM | 5.12 µM and 7.4 µM | 0.894 µM and 1.03 µM | 5.35 µM and > 10 µM | 1.56 µM and 1.51 µM | 5.71 µM and 5.97 µM | 2.13 µM and 1.94 µM | 8.59 µM and 5.28 µM | 3.55 µM and 2.68 µM | 10.1 µM and 6.77 µM | 15.9 µM and > 10 µM | 30.5 µM and > 10 µM | 1.83 µM and 2.39 µM | 4.45 µM and > 10 µM | 2.17 µM and 2.48 µM | 6.11 µM and 7.46 µM

Source: PubChem BioAssay (NCI)
